Laboratory results as given in patent US12570655B2, “Cysteine covalent modifiers of AKT1 and uses thereof” (Terremoto Biosciences, Inc., priority 2023, dated 2026).
Like-named read-outs stand apart in the source and are kept apart here.

How the values were obtained:
Assay type in all cases: cell-based
[1] = target: T1, AKT1 WT (Homo sapiens, UniProt P31749); experiment: Live cell AKT1 WT target engagement by NanoBRET competitive probe displacement; details: HEK293 cells transfected with kinase-NanoLuciferase fusion, 2 h at 37° C.
T1 construct: expressed in transfected cells; host or cells: HEK293
T1 sequence (P31749 whole entry, the tested form may be a part): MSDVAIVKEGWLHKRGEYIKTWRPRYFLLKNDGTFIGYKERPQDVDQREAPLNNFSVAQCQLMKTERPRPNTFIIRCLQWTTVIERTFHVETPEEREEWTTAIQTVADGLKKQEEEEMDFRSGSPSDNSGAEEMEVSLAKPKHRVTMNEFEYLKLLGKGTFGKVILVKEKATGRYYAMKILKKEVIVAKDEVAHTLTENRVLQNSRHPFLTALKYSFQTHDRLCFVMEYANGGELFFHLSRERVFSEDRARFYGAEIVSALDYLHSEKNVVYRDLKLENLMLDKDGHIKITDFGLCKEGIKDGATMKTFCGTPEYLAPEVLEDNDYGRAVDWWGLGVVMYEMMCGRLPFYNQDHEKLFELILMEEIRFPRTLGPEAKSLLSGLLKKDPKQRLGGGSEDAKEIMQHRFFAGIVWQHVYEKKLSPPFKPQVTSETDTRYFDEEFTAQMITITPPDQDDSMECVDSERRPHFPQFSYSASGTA
Procedure, shortened: (§1)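 Luminescence ratio 600/460 nm served as readout after HEK293 cells bearing transiently expressed kinase–NanoLuciferase fusions were exposed 2 h at 37 °C to test compound alongside an ATP-competitive fluorescent tracer near EC50. Extracellular signal was quenched by a luciferase inhibitor.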

[2] = target: T2, AKT1 E17K (Homo sapiens, UniProt P31749, E17K); experiment: Live cell AKT1 E17K target engagement by NanoBRET competitive probe displacement; details: HEK293 cells transfected with kinase-NanoLuciferase fusion, 2 h at 37° C.
T2 construct: expressed in transfected cells; host or cells: HEK293
T2 sequence (P31749 whole entry E17K, the tested form may be a part): as the sequence (P31749 whole entry, the tested form may be a part) above, with E17K counted along it
Procedure, shortened: as §1

[3] = target: T3, AKT2 (Homo sapiens, UniProt P31751); experiment: Live cell AKT2 target engagement by NanoBRET competitive probe displacement; details: HEK293 cells transfected with kinase-NanoLuciferase fusion, 2 h at 37° C.
T3 construct: expressed in transfected cells; host or cells: HEK293
T3 sequence (P31751 whole entry, the tested form may be a part): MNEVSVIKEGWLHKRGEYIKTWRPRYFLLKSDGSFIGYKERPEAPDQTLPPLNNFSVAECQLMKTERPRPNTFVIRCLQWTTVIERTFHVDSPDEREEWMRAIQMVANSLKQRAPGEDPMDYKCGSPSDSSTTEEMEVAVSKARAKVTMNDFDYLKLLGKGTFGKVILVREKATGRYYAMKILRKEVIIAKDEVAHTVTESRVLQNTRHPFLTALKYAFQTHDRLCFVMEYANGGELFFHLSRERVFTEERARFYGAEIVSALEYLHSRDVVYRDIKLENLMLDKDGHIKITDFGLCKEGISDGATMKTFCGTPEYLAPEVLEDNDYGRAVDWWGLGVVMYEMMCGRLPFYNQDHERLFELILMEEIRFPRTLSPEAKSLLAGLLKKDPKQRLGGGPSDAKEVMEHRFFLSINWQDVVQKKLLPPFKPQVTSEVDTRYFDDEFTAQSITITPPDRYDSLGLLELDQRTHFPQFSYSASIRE
Procedure: Determining Live Cell AKT1 E17K, AKT1 WT, and AKT2 Target Engagement by NanoBRET Competitive Probe Displacement.
Live cell target engagement assays were performed as described (Vasta, J. D. et al. Cell Chem Biol 2018, 25(11), 206-214). Briefly, HEK293 cells were transfected with plasmids encoding kinase-NanoLuciferase fusion proteins overnight. Cells were then treated with serial dilutions of compound and an ˜EC50 concentration of fluorescently-tagged ATP-competitive tracer (Promega). After incubation for 2 h at 37° C., luciferase substrate and extracellular luciferase inhibitor were added to all wells, and luminescent intensity at 460 nm and 600 nm were measured on a multimode plate-reader. The ratio of E600/E460 was calculated to give the tracer engagement signal (BRET). IC50 values were calculated by fitting BRET values to a log(inhibitor) vs. response Hill equation.

[4] = system: LAPC4 prostate cancer cells; experiment: Antiproliferative effects in LAPC4 cells (CellTiter Glo); details: LAPC4 cells (AKT1 E17K allele), read-out: LAPC4 proliferation IC50
Procedure, shortened: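 IC50 values reflect 72 h compound treatment of cells plated at 1,000 per well, with CellTiter Glo luminescence as the viability read-out.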

Structure (SMILES) | IC50 [1] | IC50 [2] | IC50 [3] | IC50 ([4]; Homo sapiens, LAPC4, 72 h) | IC50 ([4]; 72 h)
C=CC(=O)N1CCC(N[C@H]2CCc3cc(-n4c(-c5cccnc5N)nc5ccc(C6CC6)nc54)ccc32)C(F)C1 (mixture of isomers) [Example 175, 1-(4-(((S)-5-(2-(2-aminopyridin-3-yl)-5-cyclopropyl-3H-imidazo[4,5-b]pyridin-3-yl)-2,3-dihydro-1H-inden-1-yl)amino)-3-fluoropiperidin-1-yl)prop-2-en-1-one] | 820 nM | 17.9 nM | 123 nM | 271 nM | 
C=CC(=O)N1CCN(NC2CCc3cc(-n4c(-c5cccnc5N)nc5ccc(-n6cccn6)nc54)ccc32)CC1 (racemic) [Example 77, 1-[4-({5-[2-(2-aminopyridin-3-yl)-5-(pyrazol-1-yl)imidazo[4,5-b]pyridin-3-yl]-2,3-dihydro-1H-inden-1-yl}amino)piperazin-1-yl]prop-2-en-1-one] | 17.9 nM | 86.3 nM | 346 nM | 247 nM | 
C=CC(=O)NC1CCC(N[C@H]2CCc3cc(-n4c(-c5cccnc5N)nc5ccc(-n6cccn6)nc54)ccc32)CC1 (single isomer, unassigned) [Example 47, N-((1*,4*)-4-(((S)-5-(2-(2-aminopyridin-3-yl)-5-(1H-pyrazol-1-yl)-3H-imidazo[4,5-b]pyridin-3-yl)-2,3-dihydro-1H-inden-1-yl)amino)cyclohexyl)acrylamide] | 200 nM | 548 nM | 2570 nM |  | 4270 nM
C=CC(=O)NC1CCC(N[C@H]2CCc3cc(-n4c(-c5cccnc5N)nc5ccc(-n6cccn6)nc54)ccc32)CC1 (single isomer, unassigned) [Example 48, N-((1*,4*)-4-(((S)-5-(2-(2-aminopyridin-3-yl)-5-(1H-pyrazol-1-yl)-3H-imidazo[4,5-b]pyridin-3-yl)-2,3-dihydro-1H-inden-1-yl)amino)cyclohexyl)acrylamide] | 111 nM | 799 nM | 1280 nM |  | 1400 nM
C=CC(=O)N1CCOCC(N[C@H]2CCc3cc(-n4c(-c5cccnc5N)nc5ccc(-n6cccn6)nc54)ccc32)C1 (single isomer, unassigned) [Example 53, 1-((*)-6-(((S)-5-(2-(2-aminopyridin-3-yl)-5-(1H-pyrazol-1-yl)-3H-imidazo[4,5-b]pyridin-3-yl)-2,3-dihydro-1H-inden-1-yl)amino)-1,4-oxazepan-4-yl)prop-2-en-1-one] | 407 nM | > 1000 nM | 3940 nM |  | 2850 nM
C=CC(=O)N1CCOCC(N[C@H]2CCc3cc(-n4c(-c5cccnc5N)nc5ccc(-n6cccn6)nc54)ccc32)C1 (single isomer, unassigned) [Example 54, 1-((*)-6-(((S)-5-(2-(2-aminopyridin-3-yl)-5-(1H-pyrazol-1-yl)-3H-imidazo[4,5-b]pyridin-3-yl)-2,3-dihydro-1H-inden-1-yl)amino)-1,4-oxazepan-4-yl)prop-2-en-1-one] | 27.1 nM | 58.5 nM | 292 nM |  | 107 nM
C=CC(=O)N1CCC(N[C@H]2CCc3cc(-n4c(-c5cccnc5N)nc5ccc(-n6cccn6)nc54)ccc32)C(F)(F)C1 (single isomer, unassigned) [Example 55, 1-((*)-4-(((S)-5-(2-(2-aminopyridin-3-yl)-5-(1H-pyrazol-1-yl)-3H-imidazo[4,5-b]pyridin-3-yl)-2,3-dihydro-1H-inden-1-yl)amino)-3,3-difluoropiperidin-1-yl)prop-2-en-1-one] | 93.7 nM | 215 nM | 1120 nM |  | 617 nM
C=CC(=O)N1CCC(N[C@H]2CCc3cc(-n4c(-c5cccnc5N)nc5ccc(-n6cccn6)nc54)ccc32)C(F)(F)C1 (single isomer, unassigned) [Example 56, 1-((*)-4-(((S)-5-(2-(2-aminopyridin-3-yl)-5-(1H-pyrazol-1-yl)-3H-imidazo[4,5-b]pyridin-3-yl)-2,3-dihydro-1H-inden-1-yl)amino)-3,3-difluoropiperidin-1-yl)prop-2-en-1-one] | 6.71 nM | 23.9 nM | 104 nM |  | 144 nM
C=CC(=O)N1CCC(N[C@H]2CCc3cc(-n4c(-c5cccnc5N)nc5ccc(-n6cccn6)nc54)ccc32)C1 (single isomer, unassigned) [Example 57, 1-((*)-3-(((S)-5-(2-(2-aminopyridin-3-yl)-5-(1H-pyrazol-1-yl)-3H-imidazo[4,5-b]pyridin-3-yl)-2,3-dihydro-1H-inden-1-yl)amino)pyrrolidin-1-yl)prop-2-en-1-one] | 10.4 nM | 21.9 nM | 84.6 nM |  | 104 nM
C=CC(=O)N1CCC(N[C@H]2CCc3cc(-n4c(-c5cccnc5N)nc5ccc(-n6cccn6)nc54)ccc32)C1 (single isomer, unassigned) [Example 58, 1-((*)-3-(((S)-5-(2-(2-aminopyridin-3-yl)-5-(1H-pyrazol-1-yl)-3H-imidazo[4,5-b]pyridin-3-yl)-2,3-dihydro-1H-inden-1-yl)amino)pyrrolidin-1-yl)prop-2-en-1-one] | 50.2 nM | 189 nM | 1030 nM |  | 438 nM
C=CC(=O)N1C[C@H]2C[C@@H](C1)C2N[C@H]1CCc2cc(-n3c(-c4cccnc4N)nc4ccc(-n5cccn5)nc43)ccc21 (single isomer, unassigned) [Example 59, 1-((1R,5S,6*)-6-(((S)-5-(2-(2-aminopyridin-3-yl)-5-(1H-pyrazol-1-yl)-3H-imidazo[4,5-b]pyridin-3-yl)-2,3-dihydro-1H-inden-1-yl)amino)-3-azabicyclo[3.1.1]heptan-3-yl)prop-2-en-1-one] | 44.8 nM | 242 nM | 648 nM |  | 377 nM
C=CC(=O)N1C[C@H]2C[C@@H](C1)C2N[C@H]1CCc2cc(-n3c(-c4cccnc4N)nc4ccc(-n5cccn5)nc43)ccc21 (single isomer, unassigned) [Example 60, 1-((1R,5S,6*)-6-(((S)-5-(2-(2-aminopyridin-3-yl)-5-(1H-pyrazol-1-yl)-3H-imidazo[4,5-b]pyridin-3-yl)-2,3-dihydro-1H-inden-1-yl)amino)-3-azabicyclo[3.1.1]heptan-3-yl)prop-2-en-1-one] | > 1000 nM | 406 nM | 1680 nM |  | 1380 nM
C=CC(=O)N1CCC(N[C@H]2CCc3cc(-n4c(-c5cccnc5N)nc5ccc(-n6cccn6)nc54)ccc32)C[C@H]1C (single isomer, unassigned) [Example 62, 1-((2R,4*)-4-(((S)-5-(2-(2-aminopyridin-3-yl)-5-(1H-pyrazol-1-yl)-3H-imidazo[4,5-b]pyridin-3-yl)-2,3-dihydro-1H-inden-1-yl)amino)-2-methylpiperidin-1-yl)prop-2-en-1-one] | 9.35 nM | 8.39 nM | 31.7 nM |  | 17.1 nM
C=CC(=O)N1CCC(N[C@H]2CCc3cc(-n4c(-c5cccnc5N)nc5ccc(-n6cccn6)nc54)ccc32)C[C@H]1C (single isomer, unassigned) [Example 63, 1-((2R,4*)-4-(((S)-5-(2-(2-aminopyridin-3-yl)-5-(1H-pyrazol-1-yl)-3H-imidazo[4,5-b]pyridin-3-yl)-2,3-dihydro-1H-inden-1-yl)amino)-2-methylpiperidin-1-yl)prop-2-en-1-one] | 24.1 nM | 47.5 nM | 248 nM |  | 124 nM
